Measurements published in ChEMBL document CHEMBL1201862, “PubChem BioAssay data set” (2004).
Calls of active or inactive are those of the source.

Experiments:
[1] = Luminescence-based cell-based high throughput dose response assay to identify activators of the DAF-12 from the parasite S. stercoralis (ssDAF-12).; assay type: functional
[2] = biological target: T1, Oxysterols receptor LXR-beta (Homo sapiens, UniProt P55055); assay: LXR agonists, Gal4 luciferase reporter, dose response, counter-screen for ssDAF-12 agonist project, cell-based, luminescence, HEK293, S. stercoralis campaign (AID 720737); assay type: functional; conditions: read-out: IC50 (the source's name)
T1 sequence (P55055 whole entry): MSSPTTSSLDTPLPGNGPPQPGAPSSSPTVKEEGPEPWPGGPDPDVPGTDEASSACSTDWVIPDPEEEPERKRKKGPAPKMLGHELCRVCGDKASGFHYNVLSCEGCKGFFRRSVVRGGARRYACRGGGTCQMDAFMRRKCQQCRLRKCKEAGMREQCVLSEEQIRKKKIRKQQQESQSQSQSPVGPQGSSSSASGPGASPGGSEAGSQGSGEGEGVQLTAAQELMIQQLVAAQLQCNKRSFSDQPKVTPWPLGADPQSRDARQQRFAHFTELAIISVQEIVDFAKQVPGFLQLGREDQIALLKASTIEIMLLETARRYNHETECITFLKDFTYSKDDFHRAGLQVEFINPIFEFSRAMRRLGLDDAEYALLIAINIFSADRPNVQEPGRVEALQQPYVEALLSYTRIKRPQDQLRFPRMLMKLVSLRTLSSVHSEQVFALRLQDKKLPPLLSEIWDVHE

Cysteine protease ATG4B = biological target: T2, Cysteine protease ATG4B (Homo sapiens, UniProt Q9Y4P1); assay type: functional;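 also: Fluorescence-based dose-response confirmation assay measuring inhibition of ATG4B activity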
T2 sequence (Q9Y4P1 whole entry): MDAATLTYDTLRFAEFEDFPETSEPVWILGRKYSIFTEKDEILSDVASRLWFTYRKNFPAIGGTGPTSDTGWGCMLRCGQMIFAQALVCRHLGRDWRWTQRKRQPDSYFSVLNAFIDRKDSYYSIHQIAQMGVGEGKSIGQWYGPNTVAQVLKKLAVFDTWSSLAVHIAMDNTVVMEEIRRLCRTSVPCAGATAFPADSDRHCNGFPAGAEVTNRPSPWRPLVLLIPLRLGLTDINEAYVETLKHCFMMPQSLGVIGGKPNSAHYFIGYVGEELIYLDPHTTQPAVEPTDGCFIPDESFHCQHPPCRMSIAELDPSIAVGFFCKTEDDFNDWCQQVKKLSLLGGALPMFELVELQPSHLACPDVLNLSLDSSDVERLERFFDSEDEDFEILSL

[3] = biological target: Heat shock protein HSP 90-alpha (Homo sapiens, UniProt P07900); assay type: functional, organism-based
Phospholipase A2 = Phospholipase A2 (Homo sapiens, UniProt P04054); assay type: functional;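 also: confirmatory dose-response counterscreen on phospholipase A2, testing hits that came from an ultra-high-throughput screen for ATG4B inhibitors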
Sequence of Phospholipase A2 (P04054 whole entry): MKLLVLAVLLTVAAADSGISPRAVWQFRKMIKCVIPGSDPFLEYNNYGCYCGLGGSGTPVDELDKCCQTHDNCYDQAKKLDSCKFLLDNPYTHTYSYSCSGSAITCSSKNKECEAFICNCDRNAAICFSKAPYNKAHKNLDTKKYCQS

[4] = viability loss in HeLa cells – cytotoxicity control for MgcRacGAP inhibitor project, dose response (AID 624300); assay type: functional
[5] = biological target: T3, Rac GTPase-activating protein 1 (Homo sapiens, UniProt Q9H0H5); assay: blockers of MgcRacGAP-driven Rac1 GTP hydrolysis – biochemical, ADP Hunter fluorescence, primary and confirmatory, confirmation (AID 624330); assay type: functional
T3 sequence (Q9H0H5 whole entry): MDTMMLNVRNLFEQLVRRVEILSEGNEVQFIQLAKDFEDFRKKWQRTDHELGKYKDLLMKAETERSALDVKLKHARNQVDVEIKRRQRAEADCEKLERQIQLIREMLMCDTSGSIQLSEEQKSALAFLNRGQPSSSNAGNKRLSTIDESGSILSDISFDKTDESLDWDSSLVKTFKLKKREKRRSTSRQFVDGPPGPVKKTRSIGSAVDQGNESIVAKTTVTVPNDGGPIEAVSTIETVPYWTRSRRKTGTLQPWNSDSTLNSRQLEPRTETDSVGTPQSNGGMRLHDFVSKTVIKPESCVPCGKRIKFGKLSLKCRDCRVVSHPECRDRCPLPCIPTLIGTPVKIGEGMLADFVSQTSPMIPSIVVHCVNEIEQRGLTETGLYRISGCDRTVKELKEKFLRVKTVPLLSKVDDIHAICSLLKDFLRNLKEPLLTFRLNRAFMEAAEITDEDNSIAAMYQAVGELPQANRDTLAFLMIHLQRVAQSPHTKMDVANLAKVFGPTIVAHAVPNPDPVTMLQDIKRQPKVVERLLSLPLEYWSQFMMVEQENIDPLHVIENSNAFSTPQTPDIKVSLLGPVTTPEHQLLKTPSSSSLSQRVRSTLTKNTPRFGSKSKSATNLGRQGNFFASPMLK

[6] = biological target: T4, DNA repair protein RAD52 homolog (Homo sapiens, UniProt P43351); assay type: functional, biochemical
T4 sequence (P43351 whole entry): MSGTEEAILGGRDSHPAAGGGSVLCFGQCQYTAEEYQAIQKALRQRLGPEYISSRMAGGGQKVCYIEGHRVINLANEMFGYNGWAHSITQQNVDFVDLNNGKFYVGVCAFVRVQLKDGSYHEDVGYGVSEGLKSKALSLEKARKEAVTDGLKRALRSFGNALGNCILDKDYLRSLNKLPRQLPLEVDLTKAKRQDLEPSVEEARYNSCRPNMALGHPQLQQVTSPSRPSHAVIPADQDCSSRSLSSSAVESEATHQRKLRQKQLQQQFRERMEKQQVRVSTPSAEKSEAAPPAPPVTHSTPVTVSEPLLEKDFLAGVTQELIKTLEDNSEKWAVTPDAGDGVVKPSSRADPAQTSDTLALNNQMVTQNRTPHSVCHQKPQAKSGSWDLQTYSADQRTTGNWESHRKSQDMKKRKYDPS

[7] = rise of 2N DNA cells, HeLa – IC50, dose response (AID 1117349); assay type: functional, cell-based
[8] = CellTiter-Glo luminescence survival assay, SW480 colon tumor line, concentration-response curve, half-maximal inhibitory concentration (AID 1117338); assay type: functional
[9] = RKO cell viability reduction, dose response, CellTiter-Glo luminescence (AID 1117322); assay type: functional
[10] = cytotoxicity toward HCT116 cells – cell-based, CellTiter-Glo luminescence, IC50, dose response (AID 1117332); assay type: functional; conditions: HCT-116
[11] = SNU-C1 cell viability reduction, dose response, CellTiter-Glo luminescence (AID 1117323); assay type: functional, cell-based
cells = assay type: functional, cell-based; conditions: INS-1E
[12] = glucagon-like peptide-1 release potency in STC-1, concentration-response, half-maximal inhibitory concentration in the STC-1 line (AID 1117345); assay type: functional, cell-based
[13] = cytotoxicity toward Colo320 cells – cell-based, CellTiter-Glo luminescence, IC50, dose response (AID 1117334); assay type: functional; conditions: COLO 320
[14] = rise of 4N DNA cells, HeLa – IC50, dose response (AID 1117351); assay type: functional, cell-based
[15] = cytotoxicity toward HT-29 cells – cell-based, CellTiter-Glo luminescence, IC50, dose response (AID 1117330); assay type: functional
[16] = Reduced DLD-1 viability, concentration-response, CellTiter-Glo luminescence (AID 1117352); assay type: functional
[17] = HCT116 cell viability decrease, GSK3B pretreatment – CellTiter-Glo, IC50, dose response (AID 1117339); assay type: functional; conditions: HCT-116
[18] = Potency on glucagon-like peptide 1 release, dose-response in NCI-H716 cell line, half maximal inhibitory concentration (AID 1117344); assay type: functional, cell-based
[19] = TB:CFU starved Measured in Microorganism System Using Imaging - 7108-06_Inhibitor_Dose_DryPowder_Activity_Set2.; assay type: functional
[20] = hepatoma cell viability loss – CellTiter-Glo luminescence, dry powder, set 20, cytotoxicity control, dose response (AID 1117291); assay type: functional, cell-based; conditions: HepG2
[21] = lung carcinoma cell viability loss – CellTiter-Glo luminescence, dry powder, set 18, cytotoxicity control, dose response (AID 1117290); assay type: functional, cell-based; conditions: A549
[22] = IC50 of insulin release inhibition, rat insulinoma INS-1E line, 5 mM glucose, cell-based (AID 1117331); assay type: functional

Structure (SMILES): C(=N\Nc1nc2ccccc2s1)/c1cccs1
- IC50 [1]: > 67.5 µM (inactive)
- EC50 [2]: > 67.5 µM (inactive)

Structure (SMILES): CCCCCCCCCCCCCCCC[n+]1ccccc1
- IC50 (Cysteine protease ATG4B): 7.14 µM (active)
- AC50 [3]: 4.22 µM (active)
- IC50 (Phospholipase A2): 8.34 µM (active)
- CC50 [4]: 11.8 µM (active)
- IC50 [5]: 61.1 µM (active)
- AC50 [6]: 3.79 µM (active)
- IC50 [7]: 1.25 µM (active)
- IC50 [8]: 1.61 µM (active)
- IC50 [9]: 1.27 µM (active)
- IC50 [10]: 1.19 µM (active)
- IC50 [11]: 0.934 µM (active)
- IC50 (cells): > 33.3 µM (inactive)
- IC50 [12]: > 20 µM (inactive)
- IC50 [13]: 1.64 µM (active)
- IC50 [14]: > 10 µM (inactive)
- IC50 [15]: 2.29 µM (active)
- IC50 [16]: 1.93 µM (active)
- IC50 [17]: 2.29 µM (active)
- IC50 [18]: 14.8 µM (inactive)

Structure (SMILES): CCn1c(NC(=O)c2cccnc2O)nc2ccccc21
- AbsAC90 [19]: 89.33 µM

Structure (SMILES): COc1ccc(S(=O)(=O)Nc2cc(C(F)(F)F)ccc2N2CCCCC2)cc1
- AC50 [20]: 33.8 µM (active)
- AC50 [21]: 46 µM (active)

Structure (SMILES): Cc1cc(-n2nc3ccc(Cl)cc3n2)c(O)c(C(C)(C)C)c1 [BUMETRIZOLE]
- IC50 [22]: > 33.3 µM (inactive)
